Reference: patent publication US20250163057A1, “DCN-1 MODULATING COMPOUNDS AND METHODS OF USE THEREOF” (Cellarity, Inc., priority 2023, published 2025)
Where two headings read alike, the source gives them in different places.

What was measured:
[1] = target: DCN1 (DCUND1) protein PONY domain (Homo sapiens (Human), UniProt Q96GG9); experiment: TR-FRET assay, DCN1 binding with FAM-labeled probe
How it was run: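 First, the E. coli-derived PONY domain was biotinylated and paired with streptavidin Tb cryptate. Compounds in 0.1% DMSO were then added to DCN1 and FAM-probe (5 nM/20 nM, or 0.31 nM/900 nM total with 800 nM unlabelled) in TritonX, 200 mM NaCl buffer. Finally, TR-FRET ratios were recorded at 1, 5 and 24 hrs.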

[2] = system: fetal hemoglobin gene HBG1; experiment: HBG1 Nanostring Assay in CD34+ HSPC erythroid differentiation culture; format: cell-based, human; conditions: for EC50: HBG1 induction, Day10 of erythroid differentiation; for Nanostring Ymax obs (%): relative to a control compound (C1)
Procedure: A Nanostring Assay was performed to evaluate the ability of the compounds to induce expression of the fetal hemoglobin gene HBG1 in cells. The data are shown as EC50, with stronger inducers having a lower EC50 value and higher YMax.
Forty eight hours later (day −2), the cells were passaged at a density of 200,000 cells/ml (100 ul/well in 96well culture plate) in complete expantion media. The cells were plated at 200,000 cells/ml on day 0 and day 3, 400,000 cells/ml on day 5 in phase 1 erythroid differentiation containing StemSpan with 2.5 U/mL of EPO (R&D systems, 287-TC-500), 0.5 mg/mL of Holo-Transferrin (Sigma, T0665-500MG), 1× Glutamine (Gluta-Max) (Gibco, 35050-061), 5 μL/mL Lipid Mixture (Sigma, L0288-100ML), 50 ng/mL SCF (R&D Systems, 255-SV-050), 10 ng/mL IL-3 (R&D Systems, 203-IL010) and 10 ng/mL Insulin (Sigma, I9278-5ML) all 200 μl per well in 96 well culture plate. Cells were then passaged at 500,000 cells/ml and 200 μl per well on day 7 in phase 2 Erythroid differentiation (Phase 1 erythroid differentiation removing IL-3) until collection day (Day10). The culture conditions were used for both control DMSO as well as experimental treatments.
For all cell pasagings, cells were centrifuged at 300 g for 8 minutes at room temperature and cell number were normalized by MANTIS and Integra VIAFLO 384. All the compounds are diluted in DMSO and added to complete media by Formulatrix FAST and mixed starting from day −2. Cells were counted by Luna cell counter with AOPI Staining Solution (Nexcelom Bioscience, CS2-0106-25 mL) on day-2. Cells were counted by BD FACSCelesta Flow Cytometer with CountBright™ Plus Absolute Counting Beads (Thermal Fisher Scientific, C36995) and SYTOX AADvanced™ Ready Flow™ Reagent (Invitrogen, R37173) for other passages. Cells were cultured at 37° C. and 5% CO2. DMSO concentration was kept at 0.1% to minimize any effects to the cells by the vehicle. […] Compound plates were kept at room temperature to protect from light to avoid multiple freeze and thaw cycle.
On the collection day (Day10), 100K cells were collected and stored at −80° C. For direct hybridization for Nanostring, 100K cell pellet was lyzed in 25 μL of RLT (QIAGEN, 79216) with 1×β-Mercaptoethanol (Gibco, 21985-023) and shaked at 300-500 RPM for 5 minutes at room temperature. Cell lysate was stored in −80° C. after lysis.
All hybridizations were done in a total volume of 15 μL (3 μL of RNA lysate added to master mix of 12 μL probe A/B, capture probe/reporter probes, proteinase K and attenuation oligos suspended in hybridization buffer). Samples were hybridized at 67° C. for 22 hr. Following hybridization, the tripartide complexes were purified, immobilized by nCounter Prep Station and imaged by Digital Analyzer (nCounter MAX/FLEX Analysis System), to generate digital counts of barcodes corresponding to each target in the multiplexed reaction. Labeled barcodes obtained from unamplified extracts were counted at 555 images or field of view (FOV). The barcode counts for each sample were recorded in Reporter Code Count (RCC) files that are imported into nSolver analysis software (provided with CodeSet by NS) for quality control evaluation.
The quality control (QC) metric included limit of detection QC by checking for wells with less than 100 total counts for positive controls.
Hybridization signals were normalized against the ERCC positive controls and CodeSet Content (housekeeping gene). Briefly, this involved first calculating a sample-specific scaling factor by calculating arithmetic mean of geomeans of all ERCC positive controls with counts more than zero in all samples. Then this arithmetic mean was divided by the geometric mean of each lane to generate a lane-specific normalization factor. All negative controls and target-specific signal values were then normalized by multiplying counts values with their sample-specific scaling factor. The acceptable range for scaling factors is 0.3-3.0. […]

[3] = target: DCN1 protein (Homo sapiens (Human), UniProt Q96GG9); experiment: Intact Protein MS Analysis with the RapidFire-TOF System (covalent adduct formation); format: binding; conditions: MS Emax; 400 nM DCN1, 3 hours at room temperature
How it was run: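 Tag-cleaved human DCN1 (400 nM) expressed in E. coli, in 25 mM Tris-HCl, 200 mM NaCl, 1 mM DTT, was incubated with 11 compound concentrations for 3 h at room temperature and quenched with 0.2% formic acid. Intact-protein Q-TOF MS with deconvolution detected the compound adduct mass.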

[4] = system: Cullin-3 (CUL3) neddylation; experiment: AlphaLISA assay for Cullin-3 (CUL3) neddylation in TF 1 cells; format: cell-based; conditions: 3 hours treatment
How it was run: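 TF 1 cells in unsupplemented IMDM treated with compound concentrations for 3 h, then lysed. CUL3 neddylation detected by AlphaLISA (biotinylated anti-NEDD8, anti-CUL3 acceptor beads overnight, streptavidin donor beads 1 h); normalized to vehicle (0%) and 1 μM DI-1548 (100%), IC50 from Hill fits.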

[5] = 24 hr after treatment with compound, read-out: TR FRET IC50 24 hr
[6] = read-out: TR FRET IC50 1 hr, 1 hr after treatment with compound
[7] = TR FRET IC50 1 hr (nM), 1 hr after treatment with compound

Chain of DCN1 (DCUND1) protein PONY domain (Q96GG9 60-248): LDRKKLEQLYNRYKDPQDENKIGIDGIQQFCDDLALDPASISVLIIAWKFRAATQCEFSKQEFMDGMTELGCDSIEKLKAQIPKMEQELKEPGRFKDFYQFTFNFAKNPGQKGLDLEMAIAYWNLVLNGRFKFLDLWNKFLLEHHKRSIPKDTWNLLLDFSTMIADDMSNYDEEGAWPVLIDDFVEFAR
Chain of DCN1 protein (Q96GG9 whole entry): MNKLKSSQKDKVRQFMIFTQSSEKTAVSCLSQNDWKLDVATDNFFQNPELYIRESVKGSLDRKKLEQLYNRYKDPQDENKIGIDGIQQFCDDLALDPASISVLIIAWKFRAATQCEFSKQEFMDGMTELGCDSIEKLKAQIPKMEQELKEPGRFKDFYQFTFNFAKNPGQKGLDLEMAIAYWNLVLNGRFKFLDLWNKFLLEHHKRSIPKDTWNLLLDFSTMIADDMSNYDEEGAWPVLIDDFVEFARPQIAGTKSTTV

SMILES | IC50 [1, 5] | IC50 [1, 6] | EC50 ([2]; Homo sapiens, 240 h) | Nanostring Ymax obs (%) [2] | % Adduct Formation [3] | IC50 [1, 7] | IC50 ([4]; Homo sapiens, TF-1, 3 h) | EC50 [2] | IC50 [4]
CCN1C(=O)[C@@H](NC(=O)c2cccc(C(F)(F)F)c2)[C@@H](c2ccc(F)cc2)c2c(C(=O)N3CC[C@@H](C#N)C3)nn(-c3ccccc3)c21 (mixture of isomers) [Compound I-60] | 200 to 1000 nM | ≤ 200 nM | > 1000 nM | ++ (Nanostring Ymax greater than 50.0 and less than or equal to 100.0) | + (MS Emax % adduct formation greater than or equal to 0.0 and less than or equal to 30.0) | – | – | – | –
CCN1C(=O)[C@@H](NC(=O)c2cccc(C(F)(F)F)c2)[C@@H](c2ccc(F)cc2)c2c(CCNC#N)nn(-c3ccccc3)c21 (racemic) [Compound I-10, rac-N-((4R,5R)-3-(2-cyanamidoethyl)-7-ethyl-4-(4-fluorophenyl)-6-oxo-1-phenyl-4,5,6,7-tetrahydro-1H-pyrazolo[3,4-b]pyridin-5-yl)-3-(trifluoromethyl)benzamide] | ≤ 200 nM | – | 100 to 1000 nM | ++ (Nanostring Ymax greater than 50.0 and less than or equal to 100.0) | ++ (MS Emax % adduct formation greater than 30.0 and less than or equal to 80.0) | 200 to 1000 nM | – | – | –
CCN1C(=O)[C@@H](NC(=O)c2cccc(C(F)(F)F)c2)[C@@H](c2ccc(F)cc2)c2c(C/C=C/C(=O)NC)nn(-c3ccccc3)c21 (racemic) [Compound I-38] | 1000 to 3000 nM | – | > 1000 nM | + (Nanostring Ymax greater than or equal to 0.0 and less than or equal to 50.0) | + (MS Emax % adduct formation greater than or equal to 0.0 and less than or equal to 30.0) | 1000 to 3000 nM | – | – | –
CCN1C(=O)[C@@H](NC(=O)c2cccc(C(F)(F)F)c2)[C@@H](c2ccc(F)cc2)c2c(C(=O)N[C@@H](C)C#N)nn(-c3ccccc3)c21 [Compound I-254, (4S,5S)—N—((S)-1-cyanoethyl)-7-ethyl-4-(4-fluorophenyl)-6-oxo-1-phenyl-5-(3-(trifluoromethyl)benzamido)-4,5,6,7-tetrahydro-1H-pyrazolo[3,4-b]pyridine-3-carboxamide] | ≤ 200 nM | – | > 1000 nM | ++ (Nanostring Ymax greater than 50.0 and less than or equal to 100.0) | – | 200 to 1000 nM | ≤ 100 nM | – | –
CCN1C(=O)[C@@H](NC(=O)c2cccc(C(F)(F)F)c2)[C@@H](c2ccc(F)cc2)c2c([C@@H](CCCO)NC#N)nn(-c3ccccc3)c21 [Compound I-399] | ≤ 200 nM | ≤ 200 nM | 100 to 1000 nM | ++ (Nanostring Ymax greater than 50.0 and less than or equal to 100.0) | – | – | ≤ 100 nM | – | –
C=C(CN1CC2(CCO2)C1)C(=O)NCc1nn(-c2ccccc2)c2c1[C@H](c1ccc(F)cc1)[C@H](NC(=O)c1cccc(C(F)(F)F)c1)C(=O)N2CC [Compound I-407] | ≤ 200 nM | ≤ 200 nM | – | + (Nanostring Ymax greater than or equal to 0.0 and less than or equal to 50.0) | – | – | ≤ 100 nM | – | –
CCN1C(=O)[C@@H](NC(=O)c2cccc(C(F)(F)F)c2)[C@@H](c2ccc(F)cc2)c2c([C@H](NC#N)C(F)F)nn(-c3ccccc3)c21 [Compound I-411] | ≤ 200 nM | ≤ 200 nM | 100 to 1000 nM | ++ (Nanostring Ymax greater than 50.0 and less than or equal to 100.0) | – | – | ≤ 100 nM | – | –
C=C(CN1CC(O)C1)C(=O)NCc1nn(-c2ccccc2)c2c1[C@H](c1ccc(F)cc1)[C@H](NC(=O)c1cccc(C(F)(F)F)c1)C(=O)N2CC [Compound I-459] | ≤ 200 nM | ≤ 200 nM | ≤ 100 nM | ++ (Nanostring Ymax greater than 50.0 and less than or equal to 100.0) | – | – | ≤ 100 nM | – | –
C=C(CN(C)CC1COC1)C(=O)NCc1nn(-c2ccccc2)c2c1[C@H](c1ccc(F)cc1)[C@H](NC(=O)c1cccc(C(F)(F)F)c1)C(=O)N2CC [Compound I-574] | ≤ 200 nM | ≤ 200 nM | ≤ 100 nM | ++ (Nanostring Ymax greater than 50.0 and less than or equal to 100.0) | – | – | ≤ 100 nM | – | –
C=C(CN1CCCC1)C(=O)NCc1nn(-c2ccccc2)c2c1[C@H](c1ccc(F)cc1)[C@H](NC(=O)c1cccc(C(F)(F)F)c1)C(=O)N2CC [Compound I-612] | ≤ 200 nM | ≤ 200 nM | – | ++ (Nanostring Ymax greater than 50.0 and less than or equal to 100.0) | – | – | ≤ 100 nM | – | –
CCN1C(=O)[C@H](NC(=O)c2cccc(C(F)(F)F)c2)[C@@H](c2ccc(F)cc2)c2c([C@@H](C)NC#N)nn(-c3ccccc3)c21 [Compound I-637] | 200 to 1000 nM | – | – | + (Nanostring Ymax greater than or equal to 0.0 and less than or equal to 50.0) | – | 1000 to 3000 nM | > 1000 nM | – | –
C=C(CN1CC(C)(O)C1)C(=O)NCc1nn(-c2ccccc2)c2c1[C@H](c1ccc(F)cc1)[C@H](NC(=O)c1cccc(C(F)(F)F)c1)C(=O)N2CC [Compound I-643] | ≤ 200 nM | ≤ 200 nM | ≤ 100 nM | ++ (Nanostring Ymax greater than 50.0 and less than or equal to 100.0) | – | – | ≤ 100 nM | – | –
C=C(CN1CCC12COC2)C(=O)NCc1nn(-c2ccccc2)c2c1[C@H](c1ccc(F)cc1)[C@H](NC(=O)c1cccc(C(F)(F)F)c1)C(=O)N2CC [Compound I-644] | ≤ 200 nM | ≤ 200 nM | > 1000 nM | ++ (Nanostring Ymax greater than 50.0 and less than or equal to 100.0) | – | – | ≤ 100 nM | – | –
C=C(CN1CC2(CCOC2)C1)C(=O)NCc1nn(-c2ccccc2)c2c1[C@H](c1ccc(F)cc1)[C@H](NC(=O)c1cccc(C(F)(F)F)c1)C(=O)N2CC [Compound I-677] | ≤ 200 nM | ≤ 200 nM | – | +++ (Nanostring Ymax greater than 100.0) | – | – | ≤ 100 nM | – | –
COC(=O)/C=C/CN(C)Cc1nn(-c2ccccc2)c2c1[C@H](c1ccc(F)cc1)[C@H](NC(=O)c1cccc(C(F)(F)F)c1)C(=O)N2CC(C)C [I-266] | 200 to 1000 nM | 200 to 1000 nM | – | + (Nanostring Ymax greater than or equal to 0.0 and less than or equal to 50.0) | – | – | – | > 1000 nM | 100 to 1000 nM
